Data from PubChem BioAssay AID1919000 (Molecular Pharmacology Branch, DTP, NCI, 2023).

Tested on: 653999-131-R-J2-PDC complex spheroids, growth % test/control
Assay: Anticancer human tumor 653999-131-R-J2-PDC patient-derived lung adenocarcinoma cell line growth inhibition [AhR]
Conditions: for IC50: curve of first compound; for viability, T/C: stronger effect = lower value; active = viability on the fitted dose curve at most 10% of control; inactive = the rest
How it was run: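 Spheroids combined tumor cells with HUVEC endothelial cells and human MSCs as stroma. AhR antagonists were paired with standard or investigational drugs, each dosed in half-log steps down from near clinical Cmax, or from 10 microM where Cmax was unknown.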

[1] = second compound 0.1 µM, first compound 0.0316 µM
[2] = second compound 0.1 µM, first compound 0.1 µM
[3] = second compound 0.1 µM, first compound 0.316 µM
[4] = second compound 0.1 µM, first compound 1 µM
[5] = second compound 0.1 µM, first compound 3.16 µM
[6] = second compound 0.1 µM, first compound 10 µM
[7] = second compound 0.316 µM, first compound 0.0316 µM
[8] = second compound 0.316 µM, first compound 0.1 µM
[9] = second compound 0.316 µM, first compound 0.316 µM
[10] = second compound 0.316 µM, first compound 1 µM
[11] = second compound 0.316 µM, first compound 3.16 µM
[12] = second compound 0.316 µM, first compound 10 µM
[13] = second compound 1 µM, first compound 0.0316 µM
[14] = second compound 1 µM, first compound 0.1 µM
[15] = second compound 1 µM, first compound 0.316 µM
[16] = second compound 1 µM, first compound 1 µM
[17] = second compound 1 µM, first compound 3.16 µM
[18] = second compound 1 µM, first compound 10 µM
[19] = second compound 3.16 µM, first compound 0.0316 µM
[20] = second compound 3.16 µM, first compound 0.1 µM
[21] = second compound 3.16 µM, first compound 0.316 µM
[22] = second compound 3.16 µM, first compound 1 µM
[23] = second compound 3.16 µM, first compound 3.16 µM
[24] = second compound 3.16 µM, first compound 10 µM
[25] = second compound 10 µM, first compound 0.0316 µM
[26] = second compound 10 µM, first compound 0.1 µM
[27] = second compound 10 µM, first compound 0.316 µM
[28] = second compound 10 µM, first compound 1 µM
[29] = second compound 10 µM, first compound 3.16 µM
[30] = second compound 10 µM, first compound 10 µM
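Note: spheroids exposed to agents for seven days.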
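Throughout, for viability, T/C: 100% = DMSO vehicle control viability.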

Nc1ncn(C2CC(O)C(CO)S2)c(=O)n1 (stereo not given) + Cc1cncc(-c2nc(NCCc3c[nH]c4ccccc34)c3ncn(C(C)C)c3n2)c1
> 300 nM: IC50 (second compound 0.1 µM) | IC50 (second compound 0.316 µM) | IC50 (second compound 1 µM) | IC50 (second compound 3.16 µM) | IC50 (second compound 10 µM)
inactive: viability, T/C (second compound 0.1 µM, first compound 0.000949 µM) 106% | viability, T/C (second compound 0.1 µM, first compound 0.003 µM) 95.4% | viability, T/C (second compound 0.1 µM, first compound 0.00949 µM) 93.7% | viability, T/C (second compound 0.1 µM, first compound 0.03 µM) 90.4% | viability, T/C (second compound 0.1 µM, first compound 0.0949 µM) 93.2% | viability, T/C (second compound 0.1 µM, first compound 0.3 µM) 82.5% | viability, T/C (second compound 0.316 µM, first compound 0.000949 µM) 102% | viability, T/C (second compound 0.316 µM, first compound 0.003 µM) 99.8% | viability, T/C (second compound 0.316 µM, first compound 0.00949 µM) 101% | viability, T/C (second compound 0.316 µM, first compound 0.03 µM) 94.3% | viability, T/C (second compound 0.316 µM, first compound 0.0949 µM) 88.7% | viability, T/C (second compound 0.316 µM, first compound 0.3 µM) 85.7% | viability, T/C (second compound 1 µM, first compound 0.000949 µM) 106% | viability, T/C (second compound 1 µM, first compound 0.003 µM) 111% | viability, T/C (second compound 1 µM, first compound 0.00949 µM) 121% | viability, T/C (second compound 1 µM, first compound 0.03 µM) 109% | viability, T/C (second compound 1 µM, first compound 0.0949 µM) 106% | viability, T/C (second compound 1 µM, first compound 0.3 µM) 103% | viability, T/C (second compound 3.16 µM, first compound 0.000949 µM) 84.1% | viability, T/C (second compound 3.16 µM, first compound 0.003 µM) 87.8% | viability, T/C (second compound 3.16 µM, first compound 0.00949 µM) 93.4% | viability, T/C (second compound 3.16 µM, first compound 0.03 µM) 84.7% | viability, T/C (second compound 3.16 µM, first compound 0.0949 µM) 66.5% | viability, T/C (second compound 3.16 µM, first compound 0.3 µM) 73% | viability, T/C (second compound 10 µM, first compound 0.000949 µM) 65% | viability, T/C (second compound 10 µM, first compound 0.003 µM) 50.9% | viability, T/C (second compound 10 µM, first compound 0.00949 µM) 58% | viability, T/C (second compound 10 µM, first compound 0.03 µM) 44% | viability, T/C (second compound 10 µM, first compound 0.0949 µM) 53% | viability, T/C (second compound 10 µM, first compound 0.3 µM) 52.7%

CC1COCCN1c1cc(C2(S(C)(=N)=O)CC2)nc(-c2ccnc3[nH]ccc23)n1 (stereo not given) + Cc1cncc(-c2nc(NCCc3c[nH]c4ccccc34)c3ncn(C(C)C)c3n2)c1
> 10000 nM: IC50 (second compound 1 µM)
2700 nM: IC50 (second compound 10 µM)
9800 nM: IC50 (second compound 3.16 µM)
9850 nM: IC50 (second compound 0.316 µM)
inactive: viability, T/C [1] 105% | viability, T/C [2] 102% | viability, T/C [3] 94.7% | viability, T/C [4] 104% | viability, T/C [5] 86.1% | viability, T/C [6] 43.7% | viability, T/C [7] 103% | viability, T/C [8] 111% | viability, T/C [9] 108% | viability, T/C [10] 94.8% | viability, T/C [11] 82% | viability, T/C [12] 49.5% | viability, T/C [13] 107% | viability, T/C [14] 110% | viability, T/C [15] 124% | viability, T/C [16] 104% | viability, T/C [17] 87.1% | viability, T/C [18] 55.1% | viability, T/C [19] 101% | viability, T/C [20] 111% | viability, T/C [21] 112% | viability, T/C [22] 99% | viability, T/C [23] 85% | viability, T/C [24] 49.2% | viability, T/C [25] 71.4% | viability, T/C [26] 70.6% | viability, T/C [27] 64.5% | viability, T/C [28] 56.1% | viability, T/C [29] 49.6% | viability, T/C [30] 44.2%
8430 nM: IC50 (second compound 0.1 µM)

CC1(C)CCC(CN2CCN(c3ccc(C(=O)NS(=O)(=O)c4ccc(NCC5CCOCC5)c([N+](=O)[O-])c4)c(Oc4cnc5[nH]ccc5c4)c3)CC2)=C(c2ccc(Cl)cc2)C1 + CC(CO)NC(=O)c1cc(-c2ccc(Cl)cc2)nn(-c2cnn(C)c2)c1=O
inactive: viability, T/C [1] 105% | viability, T/C [2] 101% | viability, T/C [3] 99.6% | viability, T/C [4] 94.1% | viability, T/C [5] 108% | viability, T/C [6] 71.2% | viability, T/C [7] 98% | viability, T/C [8] 101% | viability, T/C [9] 103% | viability, T/C [10] 89.8% | viability, T/C [11] 94% | viability, T/C [12] 71% | viability, T/C [13] 90.8% | viability, T/C [14] 104% | viability, T/C [15] 107% | viability, T/C [16] 98.4% | viability, T/C [17] 103% | viability, T/C [18] 80.3% | viability, T/C [19] 96.2% | viability, T/C [20] 101% | viability, T/C [21] 106% | viability, T/C [22] 108% | viability, T/C [23] 95.3% | viability, T/C [24] 75.1% | viability, T/C [25] 99% | viability, T/C [26] 107% | viability, T/C [27] 111% | viability, T/C [28] 105% | viability, T/C [29] 92.5% | viability, T/C [30] 74.5%
> 10000 nM: IC50 (second compound 0.1 µM) | IC50 (second compound 0.316 µM) | IC50 (second compound 1 µM) | IC50 (second compound 3.16 µM) | IC50 (second compound 10 µM)

COc1cccc2c1C(=O)c1c(O)c3c(c(O)c1C2=O)CC(O)(C(=O)CO)CC3OC1CC(N)C(O)C(C)O1 (stereo not given) + Cc1cncc(-c2nc(NCCc3c[nH]c4ccccc34)c3ncn(C(C)C)c3n2)c1
inactive: viability, T/C [1] 50.2% | viability, T/C [2] 38.3% | viability, T/C [3] 26.9% | viability, T/C [4] 7.22% | viability, T/C [7] 50.4% | viability, T/C [8] 37.9% | viability, T/C [9] 27.2% | viability, T/C [10] 6.87% | viability, T/C [13] 51.4% | viability, T/C [14] 44.9% | viability, T/C [15] 27.6% | viability, T/C [19] 56.1% | viability, T/C [20] 50% | viability, T/C [21] 28.9% | viability, T/C [25] 40% | viability, T/C [26] 35.5% | viability, T/C [27] 21.5%
< 31.6 nM: IC50 (second compound 0.1 µM) | IC50 (second compound 0.316 µM) | IC50 (second compound 1 µM) | IC50 (second compound 10 µM)
active: viability, T/C [5] 3.85% | viability, T/C [6] 14% | viability, T/C [11] 3.35% | viability, T/C [12] 12.9% | viability, T/C [16] 6.09% | viability, T/C [17] 3.45% | viability, T/C [18] 15.4% | viability, T/C [22] 4.87% | viability, T/C [23] 4.59% | viability, T/C [24] 12.2% | viability, T/C [28] 2.46% | viability, T/C [29] 5.69% | viability, T/C [30] 7.61%
112 nM: IC50 (second compound 3.16 µM)
